Measured values reported in ChEMBL document CHEMBL1201862, “PubChem BioAssay data set” (2004).
Active and inactive are the calls of the source.

Legend:
Fatty acid synthase [1] = target: T1, Fatty acid synthase (Homo sapiens, UniProt P49327); test: inhibition of human FAS-TE enzyme activity – biochemical, endpoint fluorescence intensity, uHTS hits, dose response (AID 624327); format: functional;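 further: fluorescence from hydrolysis of an O-methyl fluorescein acyl ester substrate by the enzyme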
Fatty acid synthase [2] = target: T1, Fatty acid synthase; test: inhibition of human FAS-TE enzyme activity – biochemical, kinetic fluorescence intensity, dose response (AID 624326); format: functional;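 further: rate of fluorescence rise from hydrolysis of a fluorogenic O-methyl fluorescein ester substrate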
P388/ADR = test: cells; format: functional; conditions: Mus musculus
SN12K1 = test: cells; format: functional; conditions: Homo sapiens
P388 = test: cells; format: functional; conditions: Mus musculus
[3] = luciferase reporter signal suppression in cells – H4 neuroglioma cells, luminescence, dose response (AID 1990); format: functional, cell-based
[4] = Luminescence Cell-Based Dose Response HTS to Identify Inhibitors of 5'UTR Stem-Loop Driven Prion Protein mRNA Translation in H4 Neuroglioblastoma Cells. [Related pubchem assays: 1827 (Project Summary), 1813 (Primary HTS)]; format: functional
[5] = alpha-synuclein stem-loop luciferase translation blockers – H4 neuroglioma cells, luminescence, confirmation (AID 1988); format: functional, cell-based
cells = format: functional
Cytochrome P450 2C9 = Cytochrome P450 2C9 (Homo sapiens, UniProt P11712)
Cytochrome P450 2C9, sequence (P11712 whole entry): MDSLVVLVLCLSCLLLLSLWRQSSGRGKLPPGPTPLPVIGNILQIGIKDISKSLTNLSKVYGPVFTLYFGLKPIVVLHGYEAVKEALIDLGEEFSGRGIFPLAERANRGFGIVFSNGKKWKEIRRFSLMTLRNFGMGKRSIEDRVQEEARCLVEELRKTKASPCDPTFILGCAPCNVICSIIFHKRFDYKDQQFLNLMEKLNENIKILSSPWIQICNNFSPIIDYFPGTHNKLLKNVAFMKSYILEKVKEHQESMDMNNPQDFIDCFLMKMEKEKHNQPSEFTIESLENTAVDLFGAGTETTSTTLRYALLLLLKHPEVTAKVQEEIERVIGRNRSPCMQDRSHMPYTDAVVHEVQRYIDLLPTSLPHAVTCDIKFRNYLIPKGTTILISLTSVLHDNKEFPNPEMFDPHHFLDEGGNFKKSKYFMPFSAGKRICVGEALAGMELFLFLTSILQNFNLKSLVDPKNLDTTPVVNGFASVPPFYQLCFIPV

[6] = Trypanosoma cruzi growth suppression in host cells – NIH3T3 host cells, beta-gal luminescence, confirmation (AID 2044); format: functional, cell-based;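 further: intracellular parasites grown in NIH/3T3 mouse fibroblasts as host cells; luminescent beta-galactosidase reporter signal from transgenic T. cruzi replicating inside host cells; inhibitors lower the luminescence signal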
[7] = microbe, parasite or virus in culture; format: functional; conditions: Mycobacterium tuberculosis
[8] = NIH3T3 cell viability loss – ATP luminescence, mouse fibroblasts, counter-screen, dose response (AID 2010); format: functional, cell-based;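 further: cells exposed to compound for about 90 hours before reading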
INS1 = test: INS-1E survival protection against cytokine death – cell-based, luminescence, retest, dose response (AID 449756); format: functional; conditions: Rattus norvegicus;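 further: cell death triggered by IL-1 beta plus TNF-alpha plus IFN-gamma mixture; protective hits raise ATP signal compared with cytokine alone wells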
Cytochrome P450 3A4 = Cytochrome P450 3A4 (Homo sapiens, UniProt P08684);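 further: CYP3A4 tested as one member of a cytochrome P450 panel screen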
Cytochrome P450 3A4, sequence (P08684 whole entry): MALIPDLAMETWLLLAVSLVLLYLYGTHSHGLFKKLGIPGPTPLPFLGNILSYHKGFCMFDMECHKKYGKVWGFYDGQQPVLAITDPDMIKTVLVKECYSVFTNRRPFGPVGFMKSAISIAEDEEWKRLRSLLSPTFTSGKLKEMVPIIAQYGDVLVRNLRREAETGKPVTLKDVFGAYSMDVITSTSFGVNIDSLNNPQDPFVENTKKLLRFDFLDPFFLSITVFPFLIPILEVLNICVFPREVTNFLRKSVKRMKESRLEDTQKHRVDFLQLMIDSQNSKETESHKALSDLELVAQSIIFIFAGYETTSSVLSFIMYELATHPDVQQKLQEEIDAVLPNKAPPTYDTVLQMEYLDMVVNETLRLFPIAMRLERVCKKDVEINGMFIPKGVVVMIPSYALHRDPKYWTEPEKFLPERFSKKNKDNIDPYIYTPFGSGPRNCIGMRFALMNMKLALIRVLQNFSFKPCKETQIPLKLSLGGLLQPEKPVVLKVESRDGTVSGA

Cytochrome P450 2D6 = Cytochrome P450 2D6 (Homo sapiens, UniProt P10635);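 further: CYP2D6 member of a cytochrome P450 panel assay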
Cytochrome P450 2D6, sequence (P10635 whole entry): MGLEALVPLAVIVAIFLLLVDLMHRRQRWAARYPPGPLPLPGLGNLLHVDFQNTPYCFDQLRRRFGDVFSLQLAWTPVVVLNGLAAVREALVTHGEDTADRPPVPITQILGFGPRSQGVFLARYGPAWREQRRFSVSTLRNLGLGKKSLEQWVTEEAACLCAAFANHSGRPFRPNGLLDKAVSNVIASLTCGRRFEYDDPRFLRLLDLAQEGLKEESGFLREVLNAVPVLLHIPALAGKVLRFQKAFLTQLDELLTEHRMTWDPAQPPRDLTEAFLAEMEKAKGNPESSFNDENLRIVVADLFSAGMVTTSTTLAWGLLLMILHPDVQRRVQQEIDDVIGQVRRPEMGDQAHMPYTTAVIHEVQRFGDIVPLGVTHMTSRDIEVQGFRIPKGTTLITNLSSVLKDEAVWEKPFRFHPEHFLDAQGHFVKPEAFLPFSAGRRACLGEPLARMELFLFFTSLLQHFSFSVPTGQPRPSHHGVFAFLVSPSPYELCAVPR

[9] = target: Heat shock protein HSP 90-alpha (Homo sapiens, UniProt P07900); format: functional, organism-based
Aminopeptidase N = target: T2, Aminopeptidase N (Plasmodium falciparum FcB1/Columbia, UniProt O96935); test: malaria alanyl aminopeptidase activity blockers – biochemical, fluorogenic H-Leu-NHMec substrate, 1536-well (AID 1445); design: species or system Plasmodium falciparum 3D7, 3D7
T2 sequence (O96935 whole entry): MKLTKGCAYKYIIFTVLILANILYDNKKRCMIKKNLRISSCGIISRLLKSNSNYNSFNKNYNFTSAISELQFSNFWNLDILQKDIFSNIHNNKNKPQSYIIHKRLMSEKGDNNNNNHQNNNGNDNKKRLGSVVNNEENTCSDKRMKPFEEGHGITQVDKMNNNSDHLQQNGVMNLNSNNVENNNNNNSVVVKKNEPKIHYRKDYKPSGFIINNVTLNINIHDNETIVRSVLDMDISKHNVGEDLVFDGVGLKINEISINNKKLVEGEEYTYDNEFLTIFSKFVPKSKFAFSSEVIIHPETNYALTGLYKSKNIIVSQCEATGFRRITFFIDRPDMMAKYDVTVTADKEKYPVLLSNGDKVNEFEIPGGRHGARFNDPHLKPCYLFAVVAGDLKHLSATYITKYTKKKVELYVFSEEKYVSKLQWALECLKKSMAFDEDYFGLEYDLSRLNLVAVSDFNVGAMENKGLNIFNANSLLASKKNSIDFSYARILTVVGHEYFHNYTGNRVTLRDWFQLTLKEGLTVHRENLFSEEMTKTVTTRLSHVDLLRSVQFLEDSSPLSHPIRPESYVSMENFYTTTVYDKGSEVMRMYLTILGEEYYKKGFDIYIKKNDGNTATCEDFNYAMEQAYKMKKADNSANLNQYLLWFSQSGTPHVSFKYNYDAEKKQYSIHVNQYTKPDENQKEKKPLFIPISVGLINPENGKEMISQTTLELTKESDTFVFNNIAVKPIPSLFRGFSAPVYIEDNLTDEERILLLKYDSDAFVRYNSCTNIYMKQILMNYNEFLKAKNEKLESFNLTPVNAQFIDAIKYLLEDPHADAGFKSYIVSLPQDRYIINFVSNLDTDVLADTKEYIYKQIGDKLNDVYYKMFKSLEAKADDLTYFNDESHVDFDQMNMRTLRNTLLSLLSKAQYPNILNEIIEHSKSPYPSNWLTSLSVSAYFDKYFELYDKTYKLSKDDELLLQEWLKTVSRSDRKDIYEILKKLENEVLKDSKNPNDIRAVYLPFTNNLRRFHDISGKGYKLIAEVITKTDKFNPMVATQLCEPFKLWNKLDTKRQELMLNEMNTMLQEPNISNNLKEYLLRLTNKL

Genome polyprotein = Genome polyprotein (dengue virus type 2, UniProt P29990); test: flavivirus cap methylation enzyme inhibition – biochemical, confirmation dose response, primary screen (AID 588689); format: functional
Cytochrome P450 1A2 = target: T3, Cytochrome P450 1A2 (Homo sapiens, UniProt P05177);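 further: PubChem cytochrome P450 panel assay, CYP1A2 panel member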
T3 sequence (P05177 whole entry): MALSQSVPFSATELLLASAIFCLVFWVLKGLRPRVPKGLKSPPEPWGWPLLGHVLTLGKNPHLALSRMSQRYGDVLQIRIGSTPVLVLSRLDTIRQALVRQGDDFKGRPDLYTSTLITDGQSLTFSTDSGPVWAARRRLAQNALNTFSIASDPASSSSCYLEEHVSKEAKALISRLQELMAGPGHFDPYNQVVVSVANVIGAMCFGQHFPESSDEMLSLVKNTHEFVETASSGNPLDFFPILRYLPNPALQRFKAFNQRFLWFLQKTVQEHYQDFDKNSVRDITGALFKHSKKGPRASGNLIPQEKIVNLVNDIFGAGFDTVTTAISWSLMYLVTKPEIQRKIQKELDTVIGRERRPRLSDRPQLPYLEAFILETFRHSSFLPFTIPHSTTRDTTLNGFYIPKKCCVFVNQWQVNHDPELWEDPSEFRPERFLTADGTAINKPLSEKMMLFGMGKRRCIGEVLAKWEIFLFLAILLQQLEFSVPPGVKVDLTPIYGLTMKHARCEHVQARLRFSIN

Cytochrome P450 2C19 = Cytochrome P450 2C19 (Homo sapiens, UniProt P33261); test: Cytochrome panel assay with activity outcomes. Panel member name: p450-cyp2c19 Compounds with AC50 equal or less than 10 uM are considered active; format: functional; conditions: read-out: AC50
Cytochrome P450 2C19, sequence (P33261 whole entry): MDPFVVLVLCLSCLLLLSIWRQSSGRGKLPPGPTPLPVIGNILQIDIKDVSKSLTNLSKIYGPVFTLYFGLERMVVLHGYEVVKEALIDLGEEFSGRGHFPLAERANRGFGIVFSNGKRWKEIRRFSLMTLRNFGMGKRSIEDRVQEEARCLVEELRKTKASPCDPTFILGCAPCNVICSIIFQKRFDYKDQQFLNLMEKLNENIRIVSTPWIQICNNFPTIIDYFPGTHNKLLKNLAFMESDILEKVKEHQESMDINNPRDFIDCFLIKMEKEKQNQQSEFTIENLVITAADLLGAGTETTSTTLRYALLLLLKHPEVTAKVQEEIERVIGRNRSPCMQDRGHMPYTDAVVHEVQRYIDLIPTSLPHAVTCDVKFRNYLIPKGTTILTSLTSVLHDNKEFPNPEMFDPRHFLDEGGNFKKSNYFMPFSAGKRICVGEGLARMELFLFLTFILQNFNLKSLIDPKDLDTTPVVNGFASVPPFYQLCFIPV

T1 sequence (P49327 whole entry): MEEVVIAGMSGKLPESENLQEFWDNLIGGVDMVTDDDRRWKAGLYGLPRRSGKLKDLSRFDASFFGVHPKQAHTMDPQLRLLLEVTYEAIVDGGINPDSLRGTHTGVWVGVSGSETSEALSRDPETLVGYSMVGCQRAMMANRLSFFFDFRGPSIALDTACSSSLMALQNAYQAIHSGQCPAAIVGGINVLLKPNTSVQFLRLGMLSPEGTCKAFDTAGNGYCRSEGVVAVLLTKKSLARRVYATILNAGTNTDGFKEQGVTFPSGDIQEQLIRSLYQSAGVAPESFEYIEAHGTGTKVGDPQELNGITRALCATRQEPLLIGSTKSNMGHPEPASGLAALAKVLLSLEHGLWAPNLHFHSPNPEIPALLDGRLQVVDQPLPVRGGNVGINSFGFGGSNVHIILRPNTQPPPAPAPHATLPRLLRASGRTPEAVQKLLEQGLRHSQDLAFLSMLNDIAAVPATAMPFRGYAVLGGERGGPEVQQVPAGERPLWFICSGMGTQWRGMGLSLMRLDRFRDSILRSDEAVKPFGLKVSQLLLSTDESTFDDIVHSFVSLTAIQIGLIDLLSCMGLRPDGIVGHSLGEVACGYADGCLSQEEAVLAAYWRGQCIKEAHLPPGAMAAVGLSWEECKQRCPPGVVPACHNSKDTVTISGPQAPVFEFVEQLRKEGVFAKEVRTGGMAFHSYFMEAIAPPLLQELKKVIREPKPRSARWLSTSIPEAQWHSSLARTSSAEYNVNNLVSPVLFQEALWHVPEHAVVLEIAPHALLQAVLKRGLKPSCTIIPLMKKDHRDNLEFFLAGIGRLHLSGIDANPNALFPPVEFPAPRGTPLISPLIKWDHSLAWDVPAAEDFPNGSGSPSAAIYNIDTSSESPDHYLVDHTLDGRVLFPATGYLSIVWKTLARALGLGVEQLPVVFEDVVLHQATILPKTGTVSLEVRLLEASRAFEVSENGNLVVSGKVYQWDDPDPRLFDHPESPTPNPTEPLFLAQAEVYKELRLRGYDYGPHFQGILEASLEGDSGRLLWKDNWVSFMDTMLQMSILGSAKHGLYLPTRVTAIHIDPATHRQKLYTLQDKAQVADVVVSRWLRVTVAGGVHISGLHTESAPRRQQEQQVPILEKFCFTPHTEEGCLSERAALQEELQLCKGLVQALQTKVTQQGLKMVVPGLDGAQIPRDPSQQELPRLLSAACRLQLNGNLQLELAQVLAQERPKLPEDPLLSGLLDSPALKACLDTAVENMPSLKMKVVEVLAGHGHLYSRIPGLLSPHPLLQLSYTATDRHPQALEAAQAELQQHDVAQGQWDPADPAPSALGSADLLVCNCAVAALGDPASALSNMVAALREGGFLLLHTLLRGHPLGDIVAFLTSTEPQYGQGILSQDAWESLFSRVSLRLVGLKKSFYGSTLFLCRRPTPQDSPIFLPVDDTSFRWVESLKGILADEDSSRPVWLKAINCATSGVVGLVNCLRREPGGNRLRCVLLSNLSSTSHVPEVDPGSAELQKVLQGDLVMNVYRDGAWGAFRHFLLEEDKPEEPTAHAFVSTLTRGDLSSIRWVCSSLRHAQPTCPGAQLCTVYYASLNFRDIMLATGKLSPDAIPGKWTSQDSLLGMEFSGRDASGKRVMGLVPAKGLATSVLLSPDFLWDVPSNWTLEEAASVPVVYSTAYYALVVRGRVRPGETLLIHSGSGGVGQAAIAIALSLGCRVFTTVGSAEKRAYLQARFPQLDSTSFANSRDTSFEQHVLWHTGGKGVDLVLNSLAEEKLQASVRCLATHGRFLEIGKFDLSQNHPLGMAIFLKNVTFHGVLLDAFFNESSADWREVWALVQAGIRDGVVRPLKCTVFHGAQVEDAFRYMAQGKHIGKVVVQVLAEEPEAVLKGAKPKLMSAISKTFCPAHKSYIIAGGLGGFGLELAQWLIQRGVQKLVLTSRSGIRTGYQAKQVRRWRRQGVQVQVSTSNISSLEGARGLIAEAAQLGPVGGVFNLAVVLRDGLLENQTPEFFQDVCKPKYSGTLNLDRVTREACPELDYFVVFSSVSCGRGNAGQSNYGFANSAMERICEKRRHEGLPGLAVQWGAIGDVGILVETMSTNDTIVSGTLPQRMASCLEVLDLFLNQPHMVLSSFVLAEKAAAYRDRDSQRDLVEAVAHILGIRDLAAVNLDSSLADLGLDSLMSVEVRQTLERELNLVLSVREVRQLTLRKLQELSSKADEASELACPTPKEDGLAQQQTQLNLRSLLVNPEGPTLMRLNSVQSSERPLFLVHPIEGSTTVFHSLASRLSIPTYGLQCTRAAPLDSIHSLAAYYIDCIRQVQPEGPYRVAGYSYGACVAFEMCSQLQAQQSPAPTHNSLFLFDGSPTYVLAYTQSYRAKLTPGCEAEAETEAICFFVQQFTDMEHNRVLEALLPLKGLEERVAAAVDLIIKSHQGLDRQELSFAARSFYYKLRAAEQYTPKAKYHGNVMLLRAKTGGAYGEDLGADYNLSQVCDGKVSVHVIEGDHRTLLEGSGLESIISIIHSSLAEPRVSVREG

## N#Cc1cc2nc(O)c(O)nc2cc1[N+](=O)[O-]
Fatty acid synthase [1]
  IC50: 19.6 µM (active)
Fatty acid synthase [2]
  IC50: 14.8 µM (active)

## CN1CCN(c2ccc3[nH]c(-c4ccc5[nH]c(-c6ccc(O)cc6)nc5c4)nc3c2)CC1
P388/ADR
  GI50: 53.1 µM (inactive)
SN12K1
  GI50: 27 µM (inactive)
P388
  GI50: 7.94 µM (inactive)

## Cc1ccccc1Cn1cc(NC(=O)c2noc(C(C)C)c2[N+](=O)[O-])cn1
[3]
  EC50: > 120 µM (not active)
[4]
  EC50: > 120 µM (not active)
[5]
  EC50: > 120 µM (not active)
cells
  IC50: 7.8 µM (active)

## COc1ccccc1CC(=O)O/N=C(\N)Cc1cccc2ccccc12
Cytochrome P450 2C9
  AC50: inconclusive

## Cc1ccc(-n2cccc2C(=S)N=P(N(C)C)(N(C)C)N(C)C)cc1
[6]
  EC50: 0.148 µM (active)
[7]
  CC50: > 40 µM (active)
[8]
  EC50: > 30 µM (not active)
INS1
  AC50: 6.81 µM (active)

## O=C(CCc1ccccc1)NNC(=O)C1CCCCC1
Cytochrome P450 2C9
  AC50: inconclusive

## COC(=O)c1ccccc1NC(=O)c1ccc(Cn2cc(Cl)cn2)o1
Cytochrome P450 3A4
  AC50: 10 µM (inconclusive)
Cytochrome P450 2C9
  AC50: inconclusive

## CCCOc1ccc(C(=O)NC(=S)NCc2cccnc2)cc1
[7]
  CC50: > 40 µM (active)

## CCn1cc(C(=O)NCc2ccc(C)cc2)c(=O)c2cc(S(=O)(=O)N(C)C)ccc21
Fatty acid synthase [1]
  IC50: 11.4 µM (active)
Fatty acid synthase [2]
  IC50: 11.1 µM (active)

## Cc1cccc(C2Nc3ccccc3C(=O)N2NC(=O)c2ccc([N+](=O)[O-])cc2)n1 (stereo not given)
Fatty acid synthase [1]
  IC50: 10.4 µM (active)
Fatty acid synthase [2]
  IC50: 12.8 µM (active)

## CCCc1cc2c(cc1NC(=O)c1ccccc1Cl)OCO2
Cytochrome P450 2D6
  AC50: 28.2 µM (inconclusive)
Cytochrome P450 2C9
  AC50: inconclusive

## COc1ccc2c(c1)OC[C@H]1[C@H]2N2C(=O)c3cc(OC)ccc3NC(=O)[C@@]2(C)[C@H]1c1ccccc1
[9]
  AC50: 16.1 µM (active)
Fatty acid synthase [1]
  IC50: 12.7 µM (active)
Fatty acid synthase [2]
  IC50: 13.7 µM (active)

## CCOC(=O)CNC(=O)N1c2ccccc2Sc2ccccc21
cells
  IC50: 1.95 µM (active)

## Cc1c(CNc2ccc(Cl)c(C(=O)NC(CC(=O)O)C(=O)O)c2)ccc2nc(N)nc(N)c12 (stereo not given)
P388/ADR
  GI50: 0.049 µM (active)
SN12K1
  GI50: 0.043 µM (active)
P388
  GI50: 0.0339 µM (active)

## COc1cccc(NC(=O)c2cc([N+](=O)[O-])ccc2NC(=O)CNCC2CCCO2)c1 (stereo not given)
Fatty acid synthase [1]
  IC50: 12.3 µM (active)
Fatty acid synthase [2]
  IC50: 13.1 µM (active)

## c1ccc2c(c1)CCN(c1nc3cc4c(cc3s1)OCCO4)C2
[7]
  CC50: > 40 µM (active)

## CN(C)c1nc(-c2cccnc2)nc2ccccc12
Cytochrome P450 2C9
  AC50: inconclusive

## Cc1cccc(C2C3=C(O)c4ccccc4C3=Nc3nn(-c4ccccc4)c(O)c32)c1 (stereo not given)
Aminopeptidase N
  IC50: 38.3 µM (active)
Genome polyprotein
  IC50: 59.4 µM (active)

## CN(C)C=O.O=C(COc1cccc(Cl)c1)Nc1nc(-c2ccc(S(=O)(=O)N3CCOCC3)cc2)cs1
Fatty acid synthase [1]
  IC50: 4.49 µM (active)
Fatty acid synthase [2]
  IC50: 5.53 µM (active)

## CCn1c(SCC(=O)Nc2ncc(C(F)(F)F)cc2Cl)nnc1-c1ccccc1
Fatty acid synthase [1]
  IC50: 5.96 µM (active)
Fatty acid synthase [2]
  IC50: 4.08 µM (active)

## COc1cccc2cc(-c3nc4ccccc4[nH]3)c(=O)oc12
cells
  IC50: < 0.1 µM (active)

## O=C(Cc1ccc(Cl)cc1)NNC(=O)Nc1cccc2ccccc12
Cytochrome P450 1A2
  AC50: 2.51 µM (inconclusive)
Cytochrome P450 2C9
  AC50: inconclusive

## Cc1ccc(C)c(NC(=O)Cn2nnc(C(=O)Nc3c(C)cccc3C)c2N)c1
Cytochrome P450 2C19
  AC50: 17.8 µM (inconclusive)
Cytochrome P450 2C9
  AC50: inconclusive

## O=C(/C=C/c1ccccc1Cl)NCCN1CCOCC1
Cytochrome P450 2C19
  AC50: 5.01 µM (inconclusive)
Cytochrome P450 3A4
  AC50: 15.8 µM (inconclusive)
Cytochrome P450 2C9
  AC50: inconclusive

## COc1ccc(S(=O)(=O)N/N=C/C(=O)O)cc1
P388/ADR
  GI50: 212 µM (inactive)
SN12K1
  GI50: 360 µM (inactive)
P388
  GI50: 255 µM (inactive)

## CNC(=O)OCc1nc(SC)n(C)c1COC(=O)NC
P388/ADR
  GI50: 147 µM (inactive)
SN12K1
  GI50: 115 µM (inactive)
P388
  GI50: 75 µM (inactive)

## C/C=C(\C)c1cc(=O)c2c(C)cc3c(c2o1)C(=O)c1c(O)c(C2CC(C)(N(C)C)C(O)C(C)O2)cc(C2CC(N(C)C)C(O)C(C)O2)c1C3=O (stereo not given)
P388/ADR
  GI50: 3.08 µM (inactive)
SN12K1
  GI50: 1.26 µM (inactive)
P388
  GI50: 0.964 µM (active)

## Cn1cccc1/C=N/NC(=O)c1sc2ccccc2c1Cl
Cytochrome P450 2D6
  AC50: 10 µM (inconclusive)
Cytochrome P450 2C9
  AC50: inconclusive

## CC(C)=CC(=O)OC1C2C(C)C(=O)OC2C(O)C(C)C2C=CC(=O)C21C (stereo not given)
P388/ADR
  GI50: 0.615 µM (active)
SN12K1
  GI50: 2.39 µM (inactive)
P388
  GI50: 0.627 µM (active)

## CC(C)CCCCCCCCCCCCC(=O)NCC(=O)NC1C(C)OC(Nc2ncnc3c2ncn3C)C(O)C1O (stereo not given)
P388/ADR
  GI50: > 100 µM (inactive)
SN12K1
  GI50: 7.66 µM (inactive)
P388
  GI50: 6.03 µM (inactive)

## CN1OC(=O)N(C)C1c1ccccc1 (stereo not given)
P388/ADR
  GI50: > 100 µM (inactive)
SN12K1
  GI50: > 100 µM (inactive)
P388
  GI50: > 100 µM (inactive)

## COc1cc(C2c3cc4c(cc3[C@@H](Nc3ccc(C#N)cc3)C3COC(=O)[C@H]23)OCO4)cc(OC)c1O (stereo not given in full)
P388/ADR
  GI50: 0.352 µM (active)
SN12K1
  GI50: 0.0736 µM (active)
P388
  GI50: 0.00998 µM (active)

## O=C(Cn1nc2ccccc2n1)N/N=C/c1cc(Cl)cc([N+](=O)[O-])c1O
Aminopeptidase N
  IC50: 45.2 µM (active)
Fatty acid synthase [1]
  IC50: 8.31 µM (active)
Fatty acid synthase [2]
  IC50: 6.5 µM (active)
